Source: patent publication US12551482B2, “Aurora kinase inhibitors” (The Regents of the University of California, priority 2013, dated 2026)
“Also recorded” adds a separate entry of the source. Like-named read-outs stand apart in the source and are kept apart here.

How the values were obtained:
[1] = Pharmacokinetics of CD532 in mice; type: in vivo; conditions: mouse, serum, ip, 20 mg/kg, intraperitoneal injection
HSC-39 = assay: Cancer cell line profiling, Genomics of Drug Sensitivity Project; conditions: read-out: CD532 EC50 (uM)
HN = assay: as above; type: cell-based; conditions: read-out: CD532 EC50 (uM), Head & Neck
HTC-C3 = assay: as above; conditions: Homo sapiens, HTC-C3, read-out: CD532 EC50 (uM)
BICR 78 = assay: as above; conditions: read-out: CD532 EC50 (uM)
phospho-histone H3 = assay: Screen of Kelly MYCN-amplified cells, western blot for phospho-histone H3; type: cell-based; conditions: 1 μM, 24 hrs
Protocol: (§1) Neuroblastoma tumor cell lines were obtained from the University of California San Francisco Cell Culture Facility (Kelly, SK-N-BE2, and SH-EP). SMS-KCN, SHEP MYCN^wt and MYCN^T58A/S62A cells were obtained. All cells were grown in RPMI with 10% FBS. Neuroblastoma cells were harvested and lysed with Cell Signaling Lysis buffer+1% SDS, sonicated and supernatants boiled in LDS sample buffer (Invitrogen). Western blots were performed as described previously (Chanthery et al., 2012), with primary antibodies to MYCN (ab24193, Abcam), Histone H3, P-Histone H3 (S10), Aurora A (Cell signaling), and GAPDH (Millipore). Western blot quantitation performed with ImageJ software.
To test whether this panel of 32 putative conformation-disrupting Aurora A inhibitors would destabilize MYCN, initially Kelly MYCN-amplified neuroblastoma cells were treated with candidate inhibitors and MYCN protein was measured by western blot. Phosphorylation of Histone H3, a known substrate for Aurora A and B and a marker for mitosis, was also assessed. FIGS. 1B and 5 show decreased levels of both MYCN protein and p-Histone H3 in response to several members of the screening panel (quantitated in FIG. 1).

BICR 10 = assay: Cancer cell line profiling, Genomics of Drug Sensitivity Project; conditions: read-out: CD532 EC50 (uM)
BFTC-909 = assay: as above; conditions: Homo sapiens, BFTC-909, read-out: CD532 EC50 (uM)
SAT = assay: as above; conditions: read-out: CD532 EC50 (uM)
IPC-298 = assay: as above; conditions: Homo sapiens, IPC-298, read-out: CD532 EC50 (uM)
NUGC-3 = assay: as above
A2058 = assay: as above
A101D = assay: as above; conditions: Homo sapiens, read-out: CD532 EC50 (uM)
MYCN-Aurora A complex = target: T1, MYCN-Aurora A complex (Homo sapiens, UniProt O14965); assay: Pulldown of MYCN and immunoblot for Aurora A; type: cell-based; conditions: MYCN-amplified IMR32 cells, 4 hrs MG-132, 2 hrs drug, increasing concentrations
T1 construct: Representative immunoprecipitation of MYCN and immunoblots from MYCN-amplified IMR32 cells; endogenous in cells
T1 sequence (O14965 whole entry, one chain of several): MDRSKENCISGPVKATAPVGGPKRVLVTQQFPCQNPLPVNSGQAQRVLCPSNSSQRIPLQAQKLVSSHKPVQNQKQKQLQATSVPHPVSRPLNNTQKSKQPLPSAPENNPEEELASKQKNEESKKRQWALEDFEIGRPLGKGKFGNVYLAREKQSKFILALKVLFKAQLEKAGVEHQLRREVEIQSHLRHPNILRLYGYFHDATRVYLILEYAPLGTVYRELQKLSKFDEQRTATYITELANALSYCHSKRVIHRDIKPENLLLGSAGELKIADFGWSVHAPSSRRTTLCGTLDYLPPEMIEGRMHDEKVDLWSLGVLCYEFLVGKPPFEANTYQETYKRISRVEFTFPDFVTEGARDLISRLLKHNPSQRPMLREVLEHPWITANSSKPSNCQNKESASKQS

Ca9-22 = assay: Cancer cell line profiling, Genomics of Drug Sensitivity Project; conditions: Homo sapiens, Ca9-22, read-out: CD532 EC50 (uM)
NB10 = assay: as above; conditions: read-out: CD532 EC50 (uM)
B-CPAP = assay: as above; conditions: Homo sapiens, BCPAP, read-out: CD532 EC50 (uM)
FU97 = assay: as above; conditions: Fu97, read-out: CD532 EC50 (uM)
[2] = tested on: SK-N-BE(2) MYCN-amplified neuroblastoma cells; assay: Viability at 72 hrs, CyQUANT assay; type: cell-based; conditions: Homo sapiens, SKNBE2, SK-N-BE(2) cells, FIG. 1E, read-out: cellular EC50 at 72 hrs
Protocol: For viability studies, neuroblastoma cells were plated in 96-well plates at a density of 1,000 cells/well for SHEP or 4,000 cells/well for Kelly or SK—N-BE2 cells, then incubated with indicated concentrations of drug for 72 hours at 37° C. Plates were frozen at −80° C. to induce cell lysis. CyQUANT reagent mixture (Invitrogen, C7026) was added to thawed plates, then fluorescence was measured. Alternatively, resazurin (Sigma-Aldrich, R7017) was added directly to wells following drug treatment then incubated for 4 hours at 37° C. prior to measuring fluorescence. Data was analyzed using GraphPad Prism software.

tumor-derived cell lines = assay: Screen of panel of tumor-derived, genetically characterized cell lines; type: cell-based
DOK = assay: Cancer cell line profiling, Genomics of Drug Sensitivity Project; conditions: read-out: CD532 EC50 (uM)
CP50-MEL-B = assay: as above; conditions: read-out: CD532 EC50 (uM)
NCI-H747 = assay: as above; conditions: Homo sapiens, NCI-H747, read-out: CD532 EC50 (uM)
YAPC = assay: as above; conditions: Homo sapiens, read-out: CD532 EC50 (uM)
8505C = assay: as above; conditions: Homo sapiens, read-out: CD532 EC50 (uM)
MYCN = MYCN protein by western blot in SK-N-BE(2) cells; type: cell-based
Protocol: as §1

`O=C(Nc1ccc(Nc2nccc(Nc3cc(C4CCCC4)[nH]n3)n2)cc1)Nc1cccc(C(F)(F)F)c1` [CD532, 1-(4-((4-((5-cyclopentyl-1H-pyrazol-3-yl)amino)pyrimidin-2-yl)amino)phenyl)-3-(3-(trifluoromethyl)phenyl)urea] showed a half-life [1] of about 1.5 h, an AUC(0-t) ([1]; read-out: AUC0-24) of 27 µM·h and an EC50 (HSC-39) of 0.103 µM. For the same compound, the EC50 (HN) was 1.63 µM, the EC50 (HTC-C3) was 0.915 µM and the EC50 (BICR 78) was 12.2 µM. For the same compound, the “p-Histone H3 level” value (phospho-histone H3) was “decreased levels of both MYCN and p-Histone H3 proteins”, the EC50 (BICR 10) was 4.27 µM and the EC50 (BFTC-909) was 1.51 µM. The EC50 (SAT) was 1.19 µM, the EC50 (IPC-298) was 0.574 µM and the EC50 (NUGC-3; Homo sapiens, NUGC-3, read-out: CD532 EC50 (uM), NUGC-3 cell line, Stomach) was 0.968 µM. It also gave an EC50 (NUGC-3; read-out: CD532 EC50, NUGC-3 cell line, Stomach) of 1.15 µM, an EC50 (A2058; Homo sapiens, A2058, read-out: CD532 EC50 (uM), A2058 cell line, Skin) of 0.975 µM and an EC50 (A2058; read-out: CD532 EC50, A2058 cell line, Skin) of 1.09 µM. The EC50 (A101D) was 0.429 µM, the “MYCN-Aurora A interaction” value (MYCN-Aurora A complex) was “complete and dose-dependent loss of Aurora A/MYCN interaction; also recorded: dose-dependent and complete dissociation of the MYCN-Aurora A complex” and the EC50 (Ca9-22) was 0.705 µM. The EC50 (NB10) was 0.275 µM, the EC50 (B-CPAP) was 0.739 µM and the EC50 (FU97) was 0.545 µM. The EC50 [2] was 0.223 µM, the “susceptibility of MYCN amplified vs non-amplified cell lines” value (tumor-derived cell lines; Wilcoxon Rank Sum test) was “significantly more susceptible to CD532 than non-amplified lines” and the “EC50 values across the panel” value (tumor-derived cell lines; most cell lines) was “nanomolar range”. It also gave an EC50 (DOK) of 0.512 µM, an EC50 (CP50-MEL-B) of 0.323 µM and an EC50 (NCI-H747) of 0.665 µM. For the same compound, the EC50 (YAPC) was 5.34 µM, the EC50 (8505C) was 0.662 µM and the “time dependence of MYCN protein loss” value (MYCN; 1 μM, time course (FIG. 12A)) was “clear and time-dependent loss of MYCN protein”. For the same compound, the IC50 (MYCN; FIG. 1D, read-out: IC50 for on-target MYCN knockdown) was about 0.25 µM.
